The record followed here is patent publication US11866414B2, “Substituted heterocyclic compounds” (BRISTOL-MYERS SQUIBB COMPANY, priority 2021, dated 2024).

One series is described as follows: in vitro. The conditions noted are these: human, Caco-2, pH 7.4.
Series [1] deals with IFNα-induced STAT phosphorylation (pSTAT5). Briefly: IFNα-induced STAT phosphorylation in human whole blood. It counts as cell-based. The settings on record: 1 h compound, 1000 U/mL IFNα A/D 15 min, CD3 positive population, read-out: Human Whole blood IFNa pSTAT5 IC50. As to the method:
IFNα-Induced STAT Phosphorylation in Human Whole Blood
After an hour long incubation with compound, human whole blood (drawn with ACD-A as anticoagulant) was stimulated with 1000 U/mL recombinant human IFNα A/D (R&D Systems 11200-2) for 15 min. The stimulation was stopped by adding Fix/Lyse buffer (BD 558049). Cells were stained with a CD3 FITC antibody (BD 555916), washed, and permeabilized on ice using Perm III buffer (BD 558050). Cells were then stained with an Alexa-Fluor 647 pSTAT5 (pY694) antibody (BD 612599) for 60 min prior to analysis on the iQue Plus. The amount of pSTAT5 expression was quantitated by median fluorescence intensity after gating on the CD3 positive population.

pIC50: −log10 of the molar value.

As usually defined, the Papp A→B is the apparent permeability from the apical to the basolateral side of a cell layer. Read a low Papp A→B as poor permeation. The efflux ratio is the permeability from basolateral to apical divided by that in the opposite direction, in the common usage. Usually pIC50 stands for −log10 of the IC50, conventionally taken in molar units. As to `[2H]C([2H])([2H])NC(=O)c1nnc(NC(=O)C2CC2)cc1Nc1cc(C(=O)OC)cc(-c2cnn(C)n2)c1OC` [Example 32, methyl 3-((6-(cyclopropanecarboxamido)-3-((methyl-d3)carbamoyl)-pyridazin-4-yl)amino)-4-methoxy-5-(2-methyl-2H-1,2,3-triazol-4-yl)benzoate], in “in vitro”, the Papp A→B at 2 h, 3 μM amounted to 19.5 ×10⁻⁶ cm/s and the efflux ratio at 2 h, 3 μM stood at 0.9. Besides, the negative-log IC50 (pIC50) in series [1] is 6.66.
`[2H]C([2H])([2H])NC(=O)c1nnc(NC(=O)C2CC2)cc1Nc1ccc(C)c(-c2cnn(C)n2)c1OC` [Example 33, 6-(cyclopropanecarboxamido)-4-((2-methoxy-4-methyl-3-(2-methyl-2H-1,2,3-triazol-4-yl)phenyl)amino)-N-(methyl-d3)pyridazine-3-carboxamide]: in the series “in vitro”, the Papp A→B at 2 h, 3 μM is 34.5 ×10⁻⁶ cm/s and the efflux ratio at 2 h, 3 μM is 0.8. Moreover, the negative-log IC50 (pIC50) in series [1] is 7.10.
On to `[2H]C([2H])([2H])NC(=O)c1nnc(NC(=O)C2CC2)cc1Nc1cc(C(=O)OC(C)C)cc(-c2cnn(C)n2)c1OC` [Example 34, isopropyl 3-((6-(cyclopropanecarboxamido)-3-((methyl-d3)carbamoyl)pyridazin-4-yl)amino)-4-methoxy-5-(2-methyl-2H-1,2,3-triazol-4-yl)benzoate], for which, in the series “in vitro”, the Papp A→B at 2 h, 3 μM was found to be 20.9 ×10⁻⁶ cm/s and the efflux ratio at 2 h, 3 μM came out at 0.3. The pIC50 in series [1] was 6.80.
As to `[2H]C([2H])([2H])NC(=O)c1nnc(NC(=O)C2CC2)cc1Nc1cc(COC)cc(-c2cnn(C)n2)c1OC` [Example 35, 6-(Cyclopropanecarboxamido)-4-((2-methoxy-5-(methoxymethyl)-3-(2-methyl-2H-1,2,3-triazol-4-yl)phenyl)amino)-N-(methyl-d3)pyridazine-3-carboxamide], in “in vitro”, the apical-to-basolateral permeability (Papp A→B) at 2 h, 3 μM is 42.9 ×10⁻⁶ cm/s and the efflux ratio at 2 h, 3 μM came out at 0.6. The negative-log IC50 (pIC50) in series [1] was 7.70.
For the compound `[2H]C([2H])([2H])NC(=O)c1nnc(NC(=O)C2CC2(C)C)cc1Nc1nccc(-c2cnn(C)n2)c1OC` (stereo not drawn) [Example 38, 6-(2,2-dimethylcyclopropane-1-carboxamido)-4-((3-methoxy-4-(2-methyl-2H-1,2,3-triazol-4-yl)pyridin-2-yl)amino)-N-(methyl-d3)pyridazine-3-carboxamide], in “in vitro”, the Papp A→B at 2 h, 3 μM was found to be 33 ×10⁻⁶ cm/s and the efflux ratio at 2 h, 3 μM is 0.4. Also, in series [1], the negative logarithm of the IC50 (pIC50) was 6.36.
Take `[2H]C([2H])([2H])NC(=O)c1nnc(NC(=O)N(C)C)cc1Nc1nccc(-c2cnn(C)n2)c1OC` [Example 39, 6-(3,3-dimethylureido)-4-((3-methoxy-4-(2-methyl-2H-1,2,3-triazol-4-yl)pyridin-2-yl)amino)-N-(methyl-d3)pyridazine-3-carboxamide]: in the series “in vitro”, the Papp A→B at 2 h, 3 μM was 18.8 ×10⁻⁶ cm/s and the efflux ratio at 2 h, 3 μM was 0.4. Moreover, the negative-log IC50 (pIC50) in series [1] is 6.38.
For `[2H]C([2H])([2H])NC(=O)c1nnc(NC(=O)[C@H]2C[C@H]2C)cc1Nc1nccc(-c2cnn(C)n2)c1OC` [Example 40, 4-((3-methoxy-4-(2-methyl-2H-1,2,3-triazol-4-yl)pyridin-2-yl)amino)-N-(methyl-d3)-6-((1S,2R)-2-methylcyclopropane-1-carboxamido)pyridazine-3-carboxamide], in “in vitro”, the Papp A→B at 2 h, 3 μM was determined as 25.9 ×10⁻⁶ cm/s and the efflux ratio at 2 h, 3 μM is 0.8. Moreover, the pIC50 in series [1] was 7.40.
Consider `[2H]C([2H])([2H])NC(=O)c1nnc(NC(=O)[C@H]2C[C@@H]2C)cc1Nc1nccc(-c2cnn(C)n2)c1OC` [Example 42, 4-((3-methoxy-4-(2-methyl-2H-1,2,3-triazol-4-yl)pyridin-2-yl)amino)-N-(methyl-d3)-6-((1S,2S)-2-methylcyclopropane-1-carboxamido)pyridazine-3-carboxamide], for which, in “in vitro”, the Papp A→B at 2 h, 3 μM was 28.7 ×10⁻⁶ cm/s and the efflux ratio at 2 h, 3 μM was 0.4. For the same compound, in series [1], the pIC50 is 7.30.
Taken in the same sequence, the figures for `[2H]C([2H])([2H])NC(=O)c1nnc(NC(=O)[C@@H]2C[C@H]2CC)cc1Nc1nccc(-c2cnn(C)n2)c1OC` [Example 43, 6-((1R,2R)-2-ethylcyclopropane-1-carboxamido)-4-((3-methoxy-4-(2-methyl-2H-1,2,3-triazol-4-yl)pyridin-2-yl)amino)-N-(methyl-d3)pyridazine-3-carboxamide] were 13.4 ×10⁻⁶ cm/s, 0.6 and 6.55.
For the compound `[2H]C([2H])([2H])NC(=O)c1nnc(NC(=O)[C@@H]2C[C@@H]2F)cc1Nc1nccc(-c2cnn(C3CC3)n2)c1OC` [Example 44, 4-((4-(2-cyclopropyl-2H-1,2,3-triazol-4-yl)-3-methoxypyridin-2-yl)amino)-6-((1S,2S)-2-fluorocyclopropane-1-carboxamido)-N-(methyl-d3)pyridazine-3-carboxamide], in “in vitro”, the apparent permeability from apical to basolateral (Papp A→B) at 2 h, 3 μM was found to be 24.6 ×10⁻⁶ cm/s and the efflux ratio at 2 h, 3 μM was 0.5. The pIC50 in series [1] is 7.40.
With `[2H]C([2H])([2H])NC(=O)c1nnc(NC(=O)CCCF)cc1Nc1nccc(-c2cnn(C)n2)c1OC` [Example 45, 6-(4-fluorobutanamido)-4-{[3-methoxy-4-(2-methyl-2H-1,2,3-triazol-4-yl)pyridin-2-yl]amino}-N—(^2H3)methylpyridazine-3-carboxamide], in the series “in vitro”, the apparent permeability from apical to basolateral (Papp A→B) at 2 h, 3 μM was found to be 5.8 ×10⁻⁶ cm/s and the efflux ratio at 2 h, 3 μM came out at 0.5. The pIC50 in series [1] was 7.22.
Taken in the same sequence, the figures for `[2H]C([2H])([2H])NC(=O)c1nnc(NC(=O)C2CC2)cc1Nc1nc(C)cc(-c2cnn(C)n2)c1OC` [Example 46, 6-(cyclopropanecarboxamido)-4-((3-methoxy-6-methyl-4-(2-methyl-2H-1,2,3-triazol-4-yl)pyridin-2-yl)amino)-N-(methyl-d3)pyridazine-3-carboxamide] were 38.1 ×10⁻⁶ cm/s, 0.4 and 8.00.
In the case of `[2H]C([2H])([2H])NC(=O)c1nnc(NC(=O)[C@@H]2C[C@H]2C)cc1Nc1nc(C)cc(-c2cnn(C)n2)c1OC` [Example 47, 4-((3-methoxy-6-methyl-4-(2-methyl-2H-1,2,3-triazol-4-yl)pyridin-2-yl)amino)-N-(methyl-d3)-6-((1R,2R)-2-methylcyclopropane-1-carboxamido)pyridazine-3-carboxamide], in the series “in vitro”, the Papp A→B at 2 h, 3 μM amounted to 34 ×10⁻⁶ cm/s and the efflux ratio at 2 h, 3 μM is 0.3. Further, the pIC50 in series [1] is 6.96.
As to `[2H]C([2H])([2H])NC(=O)c1nnc(NC(=O)[C@H]2C[C@@H]2C)cc1Nc1nc(C)cc(-c2cnn(C)n2)c1OC` [Example 48, 4-((3-methoxy-6-methyl-4-(2-methyl-2H-1,2,3-triazol-4-yl)pyridin-2-yl)amino)-N-(methyl-d3)-6-((1S,2S)-2-methylcyclopropane-1-carboxamido)pyridazine-3-carboxamide], in the series “in vitro”, the Papp A→B at 2 h, 3 μM was 30.1 ×10⁻⁶ cm/s and the efflux ratio at 2 h, 3 μM was determined as 0.3. Besides, the negative-log IC50 (pIC50) in series [1] was 5.17.
Taken in the same sequence, the figures for `[2H]C([2H])([2H])NC(=O)c1nnc(N2CCN(C(C)C)C2=O)cc1Nc1cccc(-c2cnn(C)n2)c1OC` [Example 50, 6-(3-isopropyl-2-oxoimidazolidin-1-yl)-4-((2-methoxy-3-(2-methyl-2H-1,2,3-triazol-4-yl)phenyl)amino)-N-(methyl-d3)pyridazine-3-carboxamide] were 26.5 ×10⁻⁶ cm/s, 0.4 and 6.77.
As to `[2H]C([2H])([2H])NC(=O)c1nnc(NC(=O)C2CC2)cc1Nc1nccc(-c2cnn(C([2H])([2H])[2H])n2)c1OC` [Example 57, 6-(cyclopropane-carboxamido)-4-((3-methoxy-4-(2-(methyl-d3)-2H-1,2,3-triazol-4-yl)pyridin-2-yl)amino)-N-(methyl-d3)pyridazine-3-carboxamide], in the series “in vitro”, the Papp A→B at 2 h, 3 μM came to 81.6 ×10⁻⁶ cm/s and the efflux ratio at 2 h, 3 μM stood at 0.4. Besides, the pIC50 in series [1] was 8.00.
With `[2H]C([2H])([2H])NC(=O)c1nnc(NC(=O)N(C)C)cc1Nc1nccc(-c2cnn(C3CC3)n2)c1OC` [Example 61, 4-((4-(2-cyclopropyl-2H-1,2,3-triazol-4-yl)-3-methoxypyridin-2-yl)amino)-6-(3,3-dimethylureido)-N-(methyl-d3)pyridazine-3-carboxamide], in “in vitro”, the Papp A→B at 2 h, 3 μM was determined as 38.3 ×10⁻⁶ cm/s and the efflux ratio at 2 h, 3 μM came out at 0.4. Moreover, the pIC50 in series [1] is 6.32.
As for `[2H]C([2H])([2H])NC(=O)c1nnc(Nc2ccccn2)cc1Nc1nccc(-c2cnn(C)n2)c1OC` [Example 63, 4-((3-methoxy-4-(2-methyl-2H-1,2,3-triazol-4-yl)pyridin-2-yl)amino)-N-(methyl-d3)-6-(pyridin-2-ylamino)pyridazine-3-carboxamide], in “in vitro”, the Papp A→B at 2 h, 3 μM is 3.9 ×10⁻⁶ cm/s and the efflux ratio at 2 h, 3 μM was less than 0.4. Also, in series [1], the pIC50 was 7.70.
For `[2H]C([2H])([2H])NC(=O)c1nnc(Nc2cc(C)nc(C)n2)cc1Nc1nccc(-c2cnn(C)n2)c1OC` [Example 64, 6-[(2,6-dimethylpyrimidin-4-yl)amino]-4-{[3-methoxy-4-(2-methyl-2H-1,2,3-triazol-4-yl)pyridin-2-yl]amino}-N—(^2H3)methylpyridazine-3-carboxamide], in the series “in vitro”, the Papp A→B at 2 h, 3 μM is 1.7 ×10⁻⁶ cm/s and the efflux ratio at 2 h, 3 μM was less than 0.9. In series [1], the pIC50 was 6.60.
Consider `[2H]C([2H])([2H])NC(=O)c1nnc(Nc2ccc(C(C)(C)O)cn2)cc1Nc1nccc(-c2cnn(C)n2)c1OC` [Example 65, 6-{[5-(2-hydroxypropan-2-yl)pyridin-2-yl]amino}-4-{[3-methoxy-4-(2-methyl-2H-1,2,3-triazol-4-yl)pyridin-2-yl]amino}-N—(^2H3)methylpyridazine-3-carboxamide], for which, in the series “in vitro”, the Papp A→B at 2 h, 3 μM amounted to 11.7 ×10⁻⁶ cm/s and the efflux ratio at 2 h, 3 μM turned out to be 1.6. Besides, in series [1], the pIC50 is 8.40.
